# How the values were obtained:
# Test in all cases: KINOMEscan competition binding
# Conditions in all cases: compound 10.0 µM
# AAK1 (human) = AAK1 (human) (UniProt Q2M2I8)
# ABL2 (human) = ABL2 (human) (UniProt P42684)
# ACVR1 (human) = ACVR1 (human) (UniProt Q04771)
# ADCK4 (human) = ADCK4 (human) (UniProt Q96D53)
# AXL (human) = AXL (human) (UniProt P30530)
# CAMK1G (human) = CAMK1G (human) (UniProt Q96NX5)
# EPHA7 (human) = EPHA7 (human) (UniProt Q15375)
# EPHB4 (human) = EPHB4 (human) (UniProt P54760)
# FGFR4 (human) = FGFR4 (human) (UniProt P22455)
# [1] = test system: FLT3 (human), P36888 [ITD]
# HCK (human) = HCK (human) (UniProt P08631)
# IGF1R (human) = IGF1R (human) (UniProt P08069)
# IKBKB (human) = IKBKB (human) (UniProt O14920)
# ITK (human) = ITK (human) (UniProt Q08881)
# [2] = biological target: JAK1 JH2 pseudokinase (human) (UniProt P23458)
# LIMK1 (human) = LIMK1 (human) (UniProt P53667)
# MARK4 (human) = MARK4 (human) (UniProt Q96L34)
# MYO3A (human) = MYO3A (human) (UniProt Q8NEV4)
# NEK1 (human) = NEK1 (human) (UniProt Q96PY6)
# PDPK1 (human) = PDPK1 (human) (UniProt O15530)
# PKMYT1 (human) = PKMYT1 (human) (UniProt Q99640)
# PKN1 (human) = PKN1 (human) (UniProt Q16512)
# PKN2 (human) = PKN2 (human) (UniProt Q16513)
# PLK4 (human) = PLK4 (human) (UniProt O00444)
# PRKCD (human) = PRKCD (human) (UniProt Q05655)
# PRKD3 (human) = PRKD3 (human) (UniProt O94806)
# PTK2 (human) = PTK2 (human) (UniProt Q05397)
# RIOK3 (human) = RIOK3 (human) (UniProt O14730)
# RPS6KA2 KD2 (human) = RPS6KA2 KD2 (human) (UniProt Q15349)
# RPS6KA4 KD1 (human) = RPS6KA4 KD1 (human) (UniProt O75676)
# SRPK3 (human) = SRPK3 (human) (UniProt Q9UPE1)
# STK25 (human) = STK25 (human) (UniProt O00506)
# STK3 (human) = STK3 (human) (UniProt Q13188)
# STK32C (human) = STK32C (human) (UniProt Q86UX6)
# TEC (human) = TEC (human) (UniProt P42680)
# TGFBR1 (human) = TGFBR1 (human) (UniProt P36897)
# TNK1 (human) = TNK1 (human) (UniProt Q13470)
# ULK2 (human) = ULK2 (human) (UniProt Q8IYT8)
# WEE2 (human) = WEE2 (human) (UniProt P0C1S8)
# ZAP70 (human) = ZAP70 (human) (UniProt P43403)
# PKN1 (human), sequence (Q16512 whole entry, looked up): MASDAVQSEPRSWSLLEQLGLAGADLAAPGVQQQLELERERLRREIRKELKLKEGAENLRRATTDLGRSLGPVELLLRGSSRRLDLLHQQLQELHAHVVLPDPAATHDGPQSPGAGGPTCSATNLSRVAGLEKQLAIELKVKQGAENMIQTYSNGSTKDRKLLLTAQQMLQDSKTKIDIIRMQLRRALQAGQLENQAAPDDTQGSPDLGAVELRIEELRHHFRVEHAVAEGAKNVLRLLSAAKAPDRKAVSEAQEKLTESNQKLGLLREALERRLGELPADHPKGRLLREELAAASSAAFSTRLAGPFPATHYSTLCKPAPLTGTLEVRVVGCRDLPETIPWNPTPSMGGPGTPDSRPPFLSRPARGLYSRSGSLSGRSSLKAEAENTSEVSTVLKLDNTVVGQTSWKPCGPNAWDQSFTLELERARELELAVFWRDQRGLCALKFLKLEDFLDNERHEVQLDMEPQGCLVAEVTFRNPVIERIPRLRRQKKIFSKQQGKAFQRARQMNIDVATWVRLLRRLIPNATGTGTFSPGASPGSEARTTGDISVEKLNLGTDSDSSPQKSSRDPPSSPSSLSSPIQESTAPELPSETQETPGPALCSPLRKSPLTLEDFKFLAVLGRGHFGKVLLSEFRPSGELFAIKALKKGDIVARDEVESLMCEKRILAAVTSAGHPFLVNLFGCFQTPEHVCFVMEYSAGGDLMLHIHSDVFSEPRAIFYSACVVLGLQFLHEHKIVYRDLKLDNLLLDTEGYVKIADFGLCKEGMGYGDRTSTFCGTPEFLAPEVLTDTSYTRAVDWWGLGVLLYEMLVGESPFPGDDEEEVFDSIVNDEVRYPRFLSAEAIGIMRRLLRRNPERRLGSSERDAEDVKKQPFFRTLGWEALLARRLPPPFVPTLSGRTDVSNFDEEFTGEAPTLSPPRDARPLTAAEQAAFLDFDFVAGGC
# WEE2 (human), sequence (P0C1S8 whole entry, looked up): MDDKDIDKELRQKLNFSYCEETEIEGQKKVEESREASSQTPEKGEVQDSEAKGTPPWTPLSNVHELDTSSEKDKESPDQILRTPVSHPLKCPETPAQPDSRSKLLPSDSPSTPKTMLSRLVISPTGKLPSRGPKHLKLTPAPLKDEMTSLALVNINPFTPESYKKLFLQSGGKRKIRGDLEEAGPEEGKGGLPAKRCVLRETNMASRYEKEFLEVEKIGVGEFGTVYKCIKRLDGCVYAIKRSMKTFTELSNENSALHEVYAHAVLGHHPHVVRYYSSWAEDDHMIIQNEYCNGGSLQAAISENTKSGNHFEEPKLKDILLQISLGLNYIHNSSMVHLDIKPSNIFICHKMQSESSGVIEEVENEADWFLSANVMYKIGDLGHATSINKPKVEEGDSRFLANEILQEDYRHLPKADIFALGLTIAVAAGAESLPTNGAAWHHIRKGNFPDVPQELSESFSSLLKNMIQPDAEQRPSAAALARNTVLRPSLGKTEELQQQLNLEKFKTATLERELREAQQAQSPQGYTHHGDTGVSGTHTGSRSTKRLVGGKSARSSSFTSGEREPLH
# STK3 (human), sequence (Q13188 whole entry, looked up): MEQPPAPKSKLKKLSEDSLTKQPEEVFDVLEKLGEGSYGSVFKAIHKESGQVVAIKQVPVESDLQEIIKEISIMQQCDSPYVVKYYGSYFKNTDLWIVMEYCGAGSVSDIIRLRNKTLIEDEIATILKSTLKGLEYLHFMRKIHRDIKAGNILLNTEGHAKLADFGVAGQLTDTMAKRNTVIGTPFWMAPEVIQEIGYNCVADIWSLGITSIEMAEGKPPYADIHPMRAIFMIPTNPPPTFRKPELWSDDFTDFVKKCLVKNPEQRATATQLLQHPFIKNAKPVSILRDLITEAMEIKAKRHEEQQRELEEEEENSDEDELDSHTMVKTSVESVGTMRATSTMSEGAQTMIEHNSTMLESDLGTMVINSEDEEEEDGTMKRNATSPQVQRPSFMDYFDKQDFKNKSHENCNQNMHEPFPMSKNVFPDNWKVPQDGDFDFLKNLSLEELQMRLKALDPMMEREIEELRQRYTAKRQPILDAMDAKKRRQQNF
# SRPK3 (human), sequence (Q9UPE1 whole entry, looked up): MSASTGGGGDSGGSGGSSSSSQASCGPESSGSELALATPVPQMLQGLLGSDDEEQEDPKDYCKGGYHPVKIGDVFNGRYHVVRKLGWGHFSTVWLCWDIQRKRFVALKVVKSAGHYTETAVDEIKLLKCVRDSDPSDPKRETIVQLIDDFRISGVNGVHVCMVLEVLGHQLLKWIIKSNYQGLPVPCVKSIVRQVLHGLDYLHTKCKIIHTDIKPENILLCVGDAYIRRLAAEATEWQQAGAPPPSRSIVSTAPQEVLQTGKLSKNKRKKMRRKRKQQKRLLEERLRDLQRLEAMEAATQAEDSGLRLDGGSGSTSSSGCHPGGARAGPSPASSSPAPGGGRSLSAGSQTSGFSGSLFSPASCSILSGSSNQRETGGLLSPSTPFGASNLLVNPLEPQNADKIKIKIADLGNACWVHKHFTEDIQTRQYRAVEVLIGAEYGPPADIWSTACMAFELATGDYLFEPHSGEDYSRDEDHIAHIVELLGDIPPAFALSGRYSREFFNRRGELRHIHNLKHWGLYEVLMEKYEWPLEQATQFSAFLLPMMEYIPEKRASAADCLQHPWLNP
# IKBKB (human), sequence (O14920 whole entry, looked up): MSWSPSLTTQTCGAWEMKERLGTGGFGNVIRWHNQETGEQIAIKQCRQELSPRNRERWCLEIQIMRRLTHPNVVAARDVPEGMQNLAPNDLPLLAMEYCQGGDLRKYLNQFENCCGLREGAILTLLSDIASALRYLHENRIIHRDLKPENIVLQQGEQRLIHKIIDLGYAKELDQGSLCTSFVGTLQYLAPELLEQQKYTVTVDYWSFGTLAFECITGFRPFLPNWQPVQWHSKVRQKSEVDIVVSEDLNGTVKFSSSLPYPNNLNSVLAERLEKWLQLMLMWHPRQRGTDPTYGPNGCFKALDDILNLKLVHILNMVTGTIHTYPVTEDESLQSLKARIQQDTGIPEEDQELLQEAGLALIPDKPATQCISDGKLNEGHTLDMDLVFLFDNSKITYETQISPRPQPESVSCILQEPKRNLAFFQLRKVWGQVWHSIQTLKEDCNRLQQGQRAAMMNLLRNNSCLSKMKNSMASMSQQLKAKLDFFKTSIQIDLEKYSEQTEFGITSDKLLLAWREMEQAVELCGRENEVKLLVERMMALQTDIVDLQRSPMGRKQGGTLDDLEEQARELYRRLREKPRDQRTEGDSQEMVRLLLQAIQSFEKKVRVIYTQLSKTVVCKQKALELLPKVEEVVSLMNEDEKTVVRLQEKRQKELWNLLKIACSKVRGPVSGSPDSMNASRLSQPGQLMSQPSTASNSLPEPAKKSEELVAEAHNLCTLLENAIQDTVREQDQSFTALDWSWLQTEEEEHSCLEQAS
# EPHB4 (human), sequence (P54760 whole entry, looked up): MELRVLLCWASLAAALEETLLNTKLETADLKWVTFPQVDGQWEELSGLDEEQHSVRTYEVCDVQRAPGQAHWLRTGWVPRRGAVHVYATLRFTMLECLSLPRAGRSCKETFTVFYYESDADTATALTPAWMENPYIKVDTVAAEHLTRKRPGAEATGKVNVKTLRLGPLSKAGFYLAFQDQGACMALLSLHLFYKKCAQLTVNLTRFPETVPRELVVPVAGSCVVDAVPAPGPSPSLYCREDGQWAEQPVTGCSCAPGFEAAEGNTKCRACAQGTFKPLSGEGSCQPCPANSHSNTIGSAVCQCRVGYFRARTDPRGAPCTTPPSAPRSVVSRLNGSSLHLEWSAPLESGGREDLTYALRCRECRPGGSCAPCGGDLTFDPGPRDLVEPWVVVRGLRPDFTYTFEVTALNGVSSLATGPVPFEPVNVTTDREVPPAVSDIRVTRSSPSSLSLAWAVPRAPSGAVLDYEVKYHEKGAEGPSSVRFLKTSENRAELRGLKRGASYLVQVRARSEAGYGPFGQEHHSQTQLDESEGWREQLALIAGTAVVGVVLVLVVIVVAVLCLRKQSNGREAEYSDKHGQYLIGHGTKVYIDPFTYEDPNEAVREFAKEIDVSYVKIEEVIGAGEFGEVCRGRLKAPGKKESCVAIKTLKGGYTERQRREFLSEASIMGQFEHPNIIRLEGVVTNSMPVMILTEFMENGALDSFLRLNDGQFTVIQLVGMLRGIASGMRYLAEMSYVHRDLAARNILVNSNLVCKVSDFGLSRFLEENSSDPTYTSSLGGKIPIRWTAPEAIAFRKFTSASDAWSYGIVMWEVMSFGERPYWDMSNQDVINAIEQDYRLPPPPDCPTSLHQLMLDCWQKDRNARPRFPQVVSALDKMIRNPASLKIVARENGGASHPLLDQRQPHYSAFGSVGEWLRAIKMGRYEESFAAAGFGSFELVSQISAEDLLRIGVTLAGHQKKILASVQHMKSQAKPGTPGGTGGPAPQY
# TGFBR1 (human), sequence (P36897 whole entry, looked up): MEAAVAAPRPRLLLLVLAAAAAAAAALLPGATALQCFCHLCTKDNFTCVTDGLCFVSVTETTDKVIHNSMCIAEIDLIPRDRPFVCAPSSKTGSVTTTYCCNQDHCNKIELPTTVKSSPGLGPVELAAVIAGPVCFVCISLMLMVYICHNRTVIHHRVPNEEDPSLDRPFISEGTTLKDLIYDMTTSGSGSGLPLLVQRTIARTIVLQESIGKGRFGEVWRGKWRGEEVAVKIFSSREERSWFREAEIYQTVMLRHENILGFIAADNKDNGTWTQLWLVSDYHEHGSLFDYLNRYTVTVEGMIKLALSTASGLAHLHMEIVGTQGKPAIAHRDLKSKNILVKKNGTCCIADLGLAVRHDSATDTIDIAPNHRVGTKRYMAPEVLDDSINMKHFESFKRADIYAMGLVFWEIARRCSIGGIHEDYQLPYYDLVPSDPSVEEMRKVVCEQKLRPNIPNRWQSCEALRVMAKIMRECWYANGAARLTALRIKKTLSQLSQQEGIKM
SMILES,"kinase still bound, per cent of control (AAK1 (human)) [%]","kinase still bound, per cent of control (ABL2 (human)) [%]","kinase still bound, per cent of control (ACVR1 (human)) [%]","kinase still bound, per cent of control (ADCK4 (human)) [%]","kinase still bound, per cent of control (AXL (human)) [%]","kinase still bound, per cent of control (CAMK1G (human)) [%]","kinase still bound, per cent of control (EPHA7 (human)) [%]","kinase still bound, per cent of control (EPHB4 (human)) [%]","kinase still bound, per cent of control (FGFR4 (human)) [%]","kinase still bound, per cent of control [1] [%]","kinase still bound, per cent of control (HCK (human)) [%]","kinase still bound, per cent of control (IGF1R (human)) [%]","kinase still bound, per cent of control (IKBKB (human)) [%]","kinase still bound, per cent of control (ITK (human)) [%]","kinase still bound, per cent of control [2] [%]","kinase still bound, per cent of control (LIMK1 (human)) [%]","kinase still bound, per cent of control (MARK4 (human)) [%]","kinase still bound, per cent of control (MYO3A (human)) [%]","kinase still bound, per cent of control (NEK1 (human)) [%]","kinase still bound, per cent of control (PDPK1 (human)) [%]",other results
CCOc1cc2ncc(C#N)c(Nc3ccc(OCc4ccccn4)c(Cl)c3)c2cc1NC(=O)/C=C/CN(C)C,68,92,100,98,5.4,100,97,91,100,86,35,100,100,52,100,100,87,98,70,88,"kinase still bound, per cent of control (PKMYT1 (human)): 84%; kinase still bound, per cent of control (PKN1 (human)): 100%; kinase still bound, per cent of control (PKN2 (human)): 72%; kinase still bound, per cent of control (PLK4 (human)): 82%; kinase still bound, per cent of control (PRKCD (human)): 100%; kinase still bound, per cent of control (PRKD3 (human)): 65%; kinase still bound, per cent of control (PTK2 (human)): 65%; kinase still bound, per cent of control (RIOK3 (human)): 97%; kinase still bound, per cent of control (RPS6KA2 KD2 (human)): 100%; kinase still bound, per cent of control (RPS6KA4 KD1 (human)): 100%; kinase still bound, per cent of control (SRPK3 (human)): 77%; kinase still bound, per cent of control (STK25 (human)): 13%; kinase still bound, per cent of control (STK3 (human)): 1.4%; kinase still bound, per cent of control (STK32C (human)): 100%; kinase still bound, per cent of control (TEC (human)): 73%; kinase still bound, per cent of control (TGFBR1 (human)): 100%; kinase still bound, per cent of control (TNK1 (human)): 100%; kinase still bound, per cent of control (ULK2 (human)): 100%; kinase still bound, per cent of control (WEE2 (human)): 98%; kinase still bound, per cent of control (ZAP70 (human)): 87%"
OCCCNc1cc(-c2ccnc(Nc3cccc(Cl)c3)n2)ccn1,21,100,100,100,100,100,100,100,100,100,100,100,100,100,100,100,100,100,100,100,"kinase still bound, per cent of control (PKMYT1 (human)): 100%; kinase still bound, per cent of control (PKN1 (human)): 100%; kinase still bound, per cent of control (PKN2 (human)): 100%; kinase still bound, per cent of control (PLK4 (human)): 100%; kinase still bound, per cent of control (PRKCD (human)): 100%; kinase still bound, per cent of control (PRKD3 (human)): 100%; kinase still bound, per cent of control (PTK2 (human)): 100%; kinase still bound, per cent of control (RIOK3 (human)): 100%; kinase still bound, per cent of control (RPS6KA2 KD2 (human)): 100%; kinase still bound, per cent of control (RPS6KA4 KD1 (human)): 100%; kinase still bound, per cent of control (SRPK3 (human)): 100%; kinase still bound, per cent of control (STK25 (human)): 100%; kinase still bound, per cent of control (STK3 (human)): 100%; kinase still bound, per cent of control (STK32C (human)): 100%; kinase still bound, per cent of control (TEC (human)): 100%; kinase still bound, per cent of control (TGFBR1 (human)): 100%; kinase still bound, per cent of control (TNK1 (human)): 100%; kinase still bound, per cent of control (ULK2 (human)): 100%; kinase still bound, per cent of control (WEE2 (human)): 100%; kinase still bound, per cent of control (ZAP70 (human)): 100%"
